Values of other authors, collected in US20170119792A1, “METHODS AND COMPOSITIONS FOR DERMATOLOGICAL USE COMPRISING CLOBETASOL AND HALOBETASOL AND BIOPOLYMERS” (APEX LABORATORIES PRIVATE LIMITED, priority 2015, published 2017).

Compound | solubility in water
CCC(=O)O[C@]1(C(=O)CCl)[C@@H](C)C[C@H]2[C@@H]3CCC4=CC(=O)C=C[C@]4(C)[C@@]3(F)[C@@H](O)C[C@@]21C [Clobetasol propionate, (11β, 16β)-21-chloro-9-fluoro-11-hydroxy-16-methyl-17-(1-oxopropoxy)-pregna-1,4-diene-3, 20-dione] | insoluble in water
CCC(=O)O[C@]1(C(=O)CCl)[C@@H](C)C[C@H]2[C@@H]3C[C@H](F)C4=CC(=O)C=C[C@]4(C)[C@@]3(F)[C@@H](O)C[C@@]21C [Halobetasol propionate, 21-chloro-6α, 9-difluoro-11β, 17-dihydroxy-16β-methylpregna-1,4-diene-3, 20-dione17-propionate] | insoluble in water
